Source: ChEMBL document CHEMBL1151840, “Synthetic oligoribonucleotides containing arabinonucleotides act as agonists of TLR7 and 8” (Bioorg Med Chem Lett, 2009)
Active and inactive are the calls of the source. The rule behind the calls is not given here.

Tests used:
[1] = Stability in human serum assessed as full-length compound remaining after 10 mins by anion-exchange HPLC; type: ADME, cell-free; conditions: read-out: Stability
[2] = biological target: T1, Toll-like receptor 8 (Homo sapiens) (UniProt Q9NR97); assay: Agonist activity at human TLR8 expressed in HEK293XL cells assessed as NF-kappaB activation after 18 hrs; type: functional, cell-based
T1 sequence (whole entry): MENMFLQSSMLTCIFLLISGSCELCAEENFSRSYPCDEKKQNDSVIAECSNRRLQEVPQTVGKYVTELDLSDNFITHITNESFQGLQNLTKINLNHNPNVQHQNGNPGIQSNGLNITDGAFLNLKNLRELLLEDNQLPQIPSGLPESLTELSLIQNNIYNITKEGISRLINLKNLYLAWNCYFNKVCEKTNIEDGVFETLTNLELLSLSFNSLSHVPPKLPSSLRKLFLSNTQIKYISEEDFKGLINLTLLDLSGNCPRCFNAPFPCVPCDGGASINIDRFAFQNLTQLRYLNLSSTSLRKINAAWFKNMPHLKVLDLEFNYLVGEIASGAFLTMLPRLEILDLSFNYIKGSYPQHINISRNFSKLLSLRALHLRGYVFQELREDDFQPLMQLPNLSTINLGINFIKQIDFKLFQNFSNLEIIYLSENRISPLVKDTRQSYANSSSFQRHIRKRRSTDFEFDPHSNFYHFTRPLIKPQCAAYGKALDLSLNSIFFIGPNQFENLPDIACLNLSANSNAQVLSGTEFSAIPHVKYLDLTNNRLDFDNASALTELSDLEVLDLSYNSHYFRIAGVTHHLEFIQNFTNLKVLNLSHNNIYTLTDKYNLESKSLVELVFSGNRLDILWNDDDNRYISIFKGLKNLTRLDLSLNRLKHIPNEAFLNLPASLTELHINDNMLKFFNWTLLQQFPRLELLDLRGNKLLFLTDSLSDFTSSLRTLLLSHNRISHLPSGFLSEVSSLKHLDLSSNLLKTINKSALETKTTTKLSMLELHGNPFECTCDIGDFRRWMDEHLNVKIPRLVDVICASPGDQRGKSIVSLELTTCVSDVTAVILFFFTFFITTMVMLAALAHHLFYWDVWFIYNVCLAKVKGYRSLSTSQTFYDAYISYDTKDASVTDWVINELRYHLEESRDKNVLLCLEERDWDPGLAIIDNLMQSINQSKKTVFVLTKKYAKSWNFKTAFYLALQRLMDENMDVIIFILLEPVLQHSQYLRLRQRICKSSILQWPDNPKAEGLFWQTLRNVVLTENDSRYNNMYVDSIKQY

[3] = biological target: T2, Toll-like receptor 7 (Homo sapiens) (UniProt Q9NYK1); assay: Agonist activity at human TLR7 expressed in HEK293XL cells assessed as NF-kappaB activation after 18 hrs; type: functional, cell-based
T2 sequence (whole entry): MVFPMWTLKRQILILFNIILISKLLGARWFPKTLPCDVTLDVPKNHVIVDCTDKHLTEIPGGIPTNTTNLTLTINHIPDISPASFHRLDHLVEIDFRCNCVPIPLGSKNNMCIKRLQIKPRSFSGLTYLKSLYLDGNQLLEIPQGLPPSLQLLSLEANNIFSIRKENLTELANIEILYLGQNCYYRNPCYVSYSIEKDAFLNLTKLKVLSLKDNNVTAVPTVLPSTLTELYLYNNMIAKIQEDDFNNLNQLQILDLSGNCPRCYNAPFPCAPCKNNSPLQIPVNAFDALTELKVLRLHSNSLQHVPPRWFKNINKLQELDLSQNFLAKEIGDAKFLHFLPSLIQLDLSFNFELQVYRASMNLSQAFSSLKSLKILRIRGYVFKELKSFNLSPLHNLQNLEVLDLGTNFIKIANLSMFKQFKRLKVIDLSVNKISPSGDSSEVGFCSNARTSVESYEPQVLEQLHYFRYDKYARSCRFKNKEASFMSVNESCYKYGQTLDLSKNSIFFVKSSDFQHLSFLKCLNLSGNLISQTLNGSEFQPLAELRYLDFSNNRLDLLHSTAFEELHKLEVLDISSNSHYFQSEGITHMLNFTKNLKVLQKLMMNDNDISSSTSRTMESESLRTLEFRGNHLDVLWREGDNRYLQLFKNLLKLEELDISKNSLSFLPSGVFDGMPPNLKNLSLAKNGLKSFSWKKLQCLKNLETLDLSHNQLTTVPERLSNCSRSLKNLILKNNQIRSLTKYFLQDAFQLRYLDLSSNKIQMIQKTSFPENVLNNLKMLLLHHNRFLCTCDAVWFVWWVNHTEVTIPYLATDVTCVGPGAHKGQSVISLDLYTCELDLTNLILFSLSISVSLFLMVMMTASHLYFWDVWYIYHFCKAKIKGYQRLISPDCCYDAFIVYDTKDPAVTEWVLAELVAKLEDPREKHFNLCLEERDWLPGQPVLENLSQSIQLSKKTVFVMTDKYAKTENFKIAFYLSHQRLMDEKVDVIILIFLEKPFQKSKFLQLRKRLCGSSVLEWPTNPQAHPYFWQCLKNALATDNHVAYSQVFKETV

PBMC [4] = assay: Stimulation of immune response in human PBMC assessed as induction of IL1-beta production at 150 ug/ml after 24 hrs; type: functional, cell-based
PBMC [5] = assay: Stimulation of immune response in human PBMC assessed as induction of IL2R level at 150 ug/ml after 24 hrs; type: functional, cell-based
PBMC [6] = assay: Stimulation of immune response in human PBMC assessed as induction of IL8 production at 150 ug/ml after 24 hrs; type: functional, cell-based
PBMC [7] = assay: Stimulation of immune response in human PBMC assessed as induction of IL10 production at 150 ug/ml after 24 hrs; type: functional, cell-based
PBMC [8] = assay: Stimulation of immune response in human PBMC assessed as induction of IL12 production at 150 ug/ml after 24 hrs; type: functional, cell-based
PBMC [9] = assay: Stimulation of immune response in human PBMC assessed as induction of IFNalpha production at 150 ug/ml after 24 hrs; type: functional, cell-based
PBMC [10] = assay: Stimulation of immune response in human PBMC assessed as induction of IFN-gamma production at 150 ug/ml after 24 hrs; type: functional, cell-based
PBMC [11] = assay: Stimulation of immune response in human PBMC assessed as induction of MCP1 production at 150 ug/ml after 24 hrs; type: functional, cell-based
PBMC [12] = assay: Stimulation of immune response in human PBMC assessed as induction of RANTES production at 150 ug/ml after 24 hrs; type: functional, cell-based
PBMC [13] = assay: Stimulation of immune response in human PBMC assessed as induction of MIP1alpha production at 150 ug/ml after 24 hrs; type: functional, cell-based
PBMC [14] = assay: Stimulation of immune response in human PBMC assessed as induction of MIP1beta production at 150 ug/ml after 24 hrs; type: functional, cell-based
PBMC [15] = assay: Stimulation of immune response in human PBMC assessed as induction of TNFalpha production at 150 ug/ml after 24 hrs; type: functional, cell-based
Homo sapiens [16] = species: Homo sapiens; assay: Stimulation of immune response in human pDC assessed as induction of IFN-gamma production at 150 ug/ml after 24 hrs; type: functional
Homo sapiens [17] = species: Homo sapiens; assay: Stimulation of immune response in human pDC assessed as induction of IFNalpha production at 150 ug/ml after 24 hrs; type: functional
Homo sapiens [18] = species: Homo sapiens; assay: Stimulation of immune response in human pDC assessed as induction of IL12 production at 150 ug/ml after 24 hrs; type: functional
Homo sapiens [19] = species: Homo sapiens; assay: Stimulation of immune response in human pDC assessed as induction of TNFalpha production at 150 ug/ml after 24 hrs; type: functional
Homo sapiens [20] = species: Homo sapiens; assay: Stimulation of immune response in human pDC assessed as induction of MIP1alpha production at 150 ug/ml after 24 hrs; type: functional
Homo sapiens [21] = species: Homo sapiens; assay: Stimulation of immune response in human pDC assessed as induction of MIP1beta production at 150 ug/ml after 24 hrs; type: functional
Mus musculus = assay: Stimulation of immune response in C57BL/6 mouse assessed as induction of serum IL12 production at 50 mg/kg, sc after 2 hrs by luminex multiplex assay; type: functional, organism-based; design: dose 50 mg/kg

Compound `Nc1ccn([C@@H]2O[C@H](COP(=O)(S)O[C@H]3[C@@H](O)[C@H](n4cnc5c(N)ncnc54)O[C@@H]3COP(=O)(S)O[C@H]3[C@@H](O)[C@H](n4cnc5c(=O)[nH]c(N)nc54)O[C@@H]3COP(=O)(S)O[C@H]3[C@@H](O)[C@H](n4ccc(=O)[nH]c4=O)O[C@@H]3COP(=O)(S)O[C@H]3[C@@H](O)[C@H](n4cnc5c(=O)[nH]c(N)nc54)O[C@@H]3COP(=O)(S)O[C@H]3[C@@H](O)[C@H](n4ccc(=O)[nH]c4=O)O[C@@H]3COP(=O)(S)O[C@H]3[C@@H](O)[C@H](n4cnc5c(=O)[nH]c(N)nc54)O[C@@H]3COP(=O)(S)O[C@H]3[C@@H](O)[C@H](n4ccc(=O)[nH]c4=O)O[C@@H]3COP(=O)(S)O[C@H]3[C@@H](O)[C@H](n4ccc(=O)[nH]c4=O)O[C@@H]3COP(=O)(S)O[C@H]3[C@@H](O)[C@H](n4cnc5c(=O)[nH]c(N)nc54)O[C@@H]3COP(=O)(S)O[C@H]3[C@@H](O)[C@H](n4ccc(=O)[nH]c4=O)O[C@H]3CO)[C@@H](OP(=O)(S)OCC(O)COP(=O)(S)O[C@H]3[C@@H](O)[C@H](n4ccc(N)nc4=O)O[C@@H]3COP(=O)(S)O[C@H]3[C@@H](O)[C@H](n4cnc5c(N)ncnc54)O[C@@H]3COP(=O)(S)O[C@H]3[C@@H](O)[C@H](n4cnc5c(=O)[nH]c(N)nc54)O[C@@H]3COP(=O)(S)O[C@H]3[C@@H](O)[C@H](n4ccc(=O)[nH]c4=O)O[C@@H]3COP(=O)(S)O[C@H]3[C@@H](O)[C@H](n4cnc5c(=O)[nH]c(N)nc54)O[C@@H]3COP(=O)(S)O[C@H]3[C@@H](O)[C@H](n4ccc(=O)[nH]c4=O)O[C@@H]3COP(=O)(S)O[C@H]3[C@@H](O)[C@H](n4cnc5c(=O)[nH]c(N)nc54)O[C@@H]3COP(=O)(S)O[C@H]3[C@@H](O)[C@H](n4ccc(=O)[nH]c4=O)O[C@@H]3COP(=O)(S)O[C@H]3[C@@H](O)[C@H](n4ccc(=O)[nH]c4=O)O[C@@H]3COP(=O)(S)O[C@H]3[C@@H](O)[C@H](n4cnc5c(=O)[nH]c(N)nc54)O[C@@H]3COP(=O)(S)O[C@H]3[C@@H](O)[C@H](n4ccc(=O)[nH]c4=O)O[C@@H]3CO)[C@H]2O)c(=O)n1` (stereo in doubt; 6) has a remaining at 10 min [1] of 76%.
In the case of `Nc1ccn([C@@H]2O[C@H](COP(=O)(S)O[C@H]3[C@@H](O)[C@H](n4cnc5c(N)ncnc54)O[C@@H]3COP(=O)(S)O[C@H]3[C@@H](O)[C@H](n4cnc5c(=O)[nH]c(N)nc54)O[C@@H]3COP(=O)(S)O[C@H]3[C@@H](O)[C@H](n4ccc(=O)[nH]c4=O)O[C@@H]3COP(=O)(S)O[C@H]3[C@@H](O)[C@H](n4cnc5c(=O)[nH]c(N)nc54)O[C@@H]3COP(=O)(S)O[C@H]3[C@@H](O)[C@H](n4ccc(=O)[nH]c4=O)O[C@@H]3COP(=O)(S)O[C@H]3[C@@H](O)[C@H](n4cnc5c(=O)[nH]c(N)nc54)O[C@@H]3COP(=O)(S)O[C@H]3[C@@H](O)[C@H](n4ccc(=O)[nH]c4=O)O[C@@H]3COP(=O)(S)O[C@H]3[C@@H](O)[C@H](n4ccc(=O)[nH]c4=O)O[C@@H]3COP(=O)(S)O[C@H]3[C@@H](O)[C@H](n4cnc5c(=O)[nH]c(N)nc54)O[C@@H]3COP(=O)(S)O[C@H]3[C@@H](O)[C@H](n4ccc(=O)[nH]c4=O)O[C@H]3CO)[C@@H](OP(=O)(S)OCC(O)COP(=O)(S)O[C@H]3[C@@H](O)[C@H](n4ccc(N)nc4=O)O[C@@H]3COP(=O)(S)O[C@H]3[C@@H](O)[C@H](n4cnc5c(N)ncnc54)O[C@@H]3COP(=O)(S)O[C@H]3[C@@H](O)[C@H](n4cnc5c(=O)[nH]c(N)nc54)O[C@@H]3COP(=O)(S)O[C@H]3[C@@H](O)[C@H](n4ccc(=O)[nH]c4=O)O[C@@H]3COP(=O)(S)O[C@H]3[C@@H](O)[C@H](n4cnc5c(=O)[nH]c(N)nc54)O[C@@H]3COP(=O)(S)O[C@H]3[C@@H](O)[C@H](n4ccc(=O)[nH]c4=O)O[C@@H]3COP(=O)(S)O[C@H]3[C@@H](O)[C@H](n4cnc5c(=O)[nH]c(N)nc54)O[C@@H]3COP(=O)(S)O[C@H]3[C@@H](O)[C@H](n4ccc(=O)[nH]c4=O)O[C@@H]3COP(=O)(S)O[C@H]3[C@@H](O)[C@H](n4ccc(=O)[nH]c4=O)O[C@@H]3COP(=O)(S)O[C@H]3[C@@H](O)[C@H](n4cnc5c(=O)[nH]c(N)nc54)O[C@@H]3COP(=O)(S)O[C@H]3[C@@H](O)[C@H](n4ccc(=O)[nH]c4=O)O[C@@H]3CO)[C@H]2O)c(=O)n1` (stereo in doubt; 5), the Activity [2] is reported as “Dose-dependent effect”, the Activity [3] is reported as “inactive” and the Activity (PBMC [4]) is reported as “Active”. For the same compound, the Activity (PBMC [5]) was “Active”, the Activity (PBMC [6]) was “Active” and the Activity (PBMC [7]) was “Active”. For the same compound, the Activity (PBMC [8]) was “Active”, the Activity (PBMC [9]) was “Active” and the Activity (PBMC [10]) was “Active”. For the same compound, the Activity (PBMC [11]) was “Active”, the Activity (PBMC [12]) was “Active” and the Activity (PBMC [13]) was “Active”. The Activity (PBMC [14]) was “Active”, the Activity (PBMC [15]) was “Active” and the Activity (Homo sapiens [16]) was “Active”. For the same compound, the Activity (Homo sapiens [17]) was “inactive”, the Activity (Homo sapiens [18]) was “Active” and the Activity (Homo sapiens [19]) was “Active”. For the same compound, the Activity (Homo sapiens [20]) was “Active”, the Activity (Homo sapiens [21]) was “Active” and the Activity (Mus musculus) was “inactive”.
